Like-named read-outs stand apart in the source and are kept apart here.
How the values were obtained:
histamine H2 receptors = target: T1, histamine H2 receptors (Cavia porcellus, UniProt P47747); test: Antagonistic activity to the histamine H2 receptors "in vitro" on insulated atrium auricolas of Guinea pig heart; details: for inhibition at 10 µM / inhibition at 1 µM / inhibition at 0.1 µM: guinea pig, 0.5 h, read-out: Antagonizing activity to histamine H2 receptors; for inhibition at 10 µM: compound 1·10^-5 M/L; for inhibition at 1 µM: compound 1·10^-6 M/L; for inhibition at 0.1 µM: compound 1·10^-7 M/L; for antagonistic action to the histamine H2 receptors (in words): in vitro
T1 construct: tests on insulated atrium auricolas of Guinea pig heart; from tissue; host or cells: isolated guinea pig heart atrium
T1 sequence (P47747 whole entry): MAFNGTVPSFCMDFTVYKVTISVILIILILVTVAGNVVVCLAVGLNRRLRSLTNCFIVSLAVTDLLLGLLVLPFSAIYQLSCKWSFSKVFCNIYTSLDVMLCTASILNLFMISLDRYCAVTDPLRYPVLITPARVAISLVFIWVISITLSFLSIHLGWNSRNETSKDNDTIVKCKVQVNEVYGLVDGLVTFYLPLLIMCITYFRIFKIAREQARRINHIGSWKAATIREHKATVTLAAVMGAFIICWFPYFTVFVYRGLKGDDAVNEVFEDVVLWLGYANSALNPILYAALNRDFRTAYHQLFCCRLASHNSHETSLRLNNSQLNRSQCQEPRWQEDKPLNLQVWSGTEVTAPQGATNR
Method: (§1) The preparations were a solution of the substances in 2.5% citric acid for the "in vitro" test and 5% citric acid for the "in vivo" test respectively. Citric acid was diluted in normal physiologic saline at neutral pH.
This activity was evaluated "in vitro" by carrying out tests on insulated atrium auricolas of Guinea pig heart. […] Metering was carried out by placing the preparation into a vessel containing a Ringer-Locke solution wherein pure oxygen was bubbling, at a temperature of 37° C. A response of the organ "in vitro" was first established at cumulative histamine doses of 2.5.10^-7, 5.10^-7, 10^-6, 5.10^-6, 10^-5 M/L. After obtaining two constant lines with histamine at a time interval of one hour from one another, the substances under test were added to the bath and after a 30 minutes contact with the preparation, a new histamine response line in the presence of the substance under test was drawn. The activity was tested at various concentrations of the new compounds (10^-5, 10^-6, 10^-7 and in one case 10^-8 M/L).

gastric secretion = test: Activity on gastric secretion "in vivo" (volume and total acidity of gastric juice after pylorus tieing, Shay); design: species or system male Wistar rats; details: for Total acidity gastric juice secretion / Volume gastric juice secretion / change in vivo at 20 mg/kg: 20 mg/kg oral; for change in vivo at 20 mg/kg / ED50: Rattus norvegicus, po; for ED50: per os, 1 hour before pilorus tieing, read-out: DE50 in rat calculated on total acidity (mEq/4 hours); for ability to reduce the gastric acid secretion (in words): volume and total acidity of gastric juice
Method: as §1
The ability of the compounds according to the present invention to inhibit the gastric secretion was studied "in vivo" both by evaluating the volume reduction of gastric juice, and by measuring the total acidity of same after administration of the substances under test according to the Takeda method (see the aforementioned literature).
To this end, tests have been made on male Wistar rats of an average weight of 200 g. The animals, 10 for each substance, were placed into individual cages provided with ground grating in order to avoid coprophagy, without food but with free access to water for 24 hours before test. […] Four hours later the animals were sacrificed and the gastric juice was collected, of which the volume expressed in ml and the total acidity expressed in mEq was measured. The gastric juice ([…] ) was titrated with 0.1N NaOH to pH 7 to determine the acid concentration. The total acidity was then calculated as the product of the total volume of gastric juice by the acid concentration.

in vivo = details: po; for LD50 at 360 h: mouse; for LD50: rat
From the text: The animals were kept under observation by checking mortality and possible pain signs for 15 days from start of test.

[1] = 6 hours before pilorus tieing, read-out: Total acidity gastric juice secretion, Variation %
[2] = 6 hours before pilorus tieing, read-out: Volume gastric juice secretion, Variation %
[3] = 12 hours before pilorus tieing, read-out: Total acidity gastric juice secretion, Variation %
[4] = 12 hours before pilorus tieing, read-out: Volume gastric juice secretion, Variation %
[5] = 24 hours before pilorus tieing, read-out: Total acidity gastric juice secretion, Variation %
[6] = 24 hours before pilorus tieing, read-out: Volume gastric juice secretion, Variation %
[7] = 36 hours before pilorus tieing, read-out: Total acidity gastric juice secretion, Variation %
[8] = 36 hours before pilorus tieing, read-out: Volume gastric juice secretion, Variation %

| Structure (SMILES) | inhibition at 10 µM (histamine H2 receptors; histamine 1·10^-5 M/L) [%] | inhibition at 10 µM (histamine H2 receptors; histamine 1·10^-6 M/L) [%] | inhibition at 10 µM (histamine H2 receptors; histamine 2,5·10^-7 M/L) [%] | inhibition at 10 µM (histamine H2 receptors; histamine 5·10^-6 M/L) [%] | inhibition at 10 µM (histamine H2 receptors; histamine 5·10^-7 M/L) [%] | inhibition at 1 µM (histamine H2 receptors; histamine 1·10^-5 M/L) [%] | inhibition at 1 µM (histamine H2 receptors; histamine 1·10^-6 M/L) [%] | inhibition at 1 µM (histamine H2 receptors; histamine 2,5·10^-7 M/L) [%] | inhibition at 1 µM (histamine H2 receptors; histamine 5·10^-6 M/L) [%] | inhibition at 1 µM (histamine H2 receptors; histamine 5·10^-7 M/L) [%] | inhibition at 0.1 µM (histamine H2 receptors; histamine 1·10^-5 M/L) [%] | inhibition at 0.1 µM (histamine H2 receptors; histamine 1·10^-6 M/L) [%] | inhibition at 0.1 µM (histamine H2 receptors; histamine 2,5·10^-7 M/L) [%] | inhibition at 0.1 µM (histamine H2 receptors; histamine 5·10^-6 M/L) [%] | inhibition at 0.1 µM (histamine H2 receptors; histamine 5·10^-7 M/L) [%] | antagonistic action to the histamine H2 receptors (in words) (histamine H2 receptors) | Total acidity gastric juice secretion (gastric secretion; 6 hours before pilorus tieing) | Volume gastric juice secretion (gastric secretion; 6 hours before pilorus tieing) | Total acidity gastric juice secretion (gastric secretion; 12 hours before pilorus tieing) | Volume gastric juice secretion (gastric secretion; 12 hours before pilorus tieing) | further results |
| --- | --- | --- | --- | --- | --- | --- | --- | --- | --- | --- | --- | --- | --- | --- | --- | --- | --- | --- | --- | --- | --- |
| CN(C)Cc1ccc(CSCCNC(=S)NC(=O)c2ccccc2)o1 [Example No. 1, N-benzoyl-N'-(2-(((5-(dimethylamino)methyl-2-furanyl)methyl)-thio)ethyl)-thiourea] | 100 | 100 | 100 | 100 | 100 | 50 | 80 | 100 | 60 | 90 | 20 | 65 | 90 | 35 | 85 | interesting ability | 0,08 mEq/4 hours | 4,1 ml/4 hours | 0,09 mEq/4 hours | 4,0 ml/4 hours | Total acidity gastric juice secretion (gastric secretion; 24 hours before pilorus tieing): 0,13 mEq/4 hours; Volume gastric juice secretion (gastric secretion; 24 hours before pilorus tieing): 5,0 ml/4 hours; Total acidity gastric juice secretion (gastric secretion; 36 hours before pilorus tieing): 0,14 mEq/4 hours; Volume gastric juice secretion (gastric secretion; 36 hours before pilorus tieing): 5,2 ml/4 hours; change in vivo at 20 mg/kg (gastric secretion; [1]): -53%; change in vivo at 20 mg/kg (gastric secretion; [2]): -23%; change in vivo at 20 mg/kg (gastric secretion; [3]): -40%; change in vivo at 20 mg/kg (gastric secretion; [4]): -21%; change in vivo at 20 mg/kg (gastric secretion; [5]): -23%; change in vivo at 20 mg/kg (gastric secretion; [6]): -11%; change in vivo at 20 mg/kg (gastric secretion; [7]): -12%; change in vivo at 20 mg/kg (gastric secretion; [8]): -7%; ED50 (gastric secretion): 3.4 mg/kg; ability to reduce the gastric acid secretion (in words) (gastric secretion): interesting ability; LD50 at 360 h (in vivo): 750 mg/kg; LD50 (in vivo): 1000 mg/kg |
| CN(C)Cc1ccc(CSCCNc2nc(-c3ccccc3)cs2)o1 [Example No. 3, 2-(2-(((5-(dimethylamino)methyl-2-furanyl)methyl)thio)ethyl)-amino-4-phenylthiazole] | 95 | 100 | 100 | 100 | 100 | 52 | 85 | 100 | 70 | 100 | 20 | 50 | 85 | 30 | 70 | interesting ability | 0,07 mEq/4 hours | 4,0 ml/4 hours | 0,10 mEq/4 hours | 4,1 ml/4 hours | Total acidity gastric juice secretion (gastric secretion; 24 hours before pilorus tieing): 0,12 mEq/4 hours; Volume gastric juice secretion (gastric secretion; 24 hours before pilorus tieing): 4,8 ml/4 hours; Total acidity gastric juice secretion (gastric secretion; 36 hours before pilorus tieing): 0,15 mEq/4 hours; Volume gastric juice secretion (gastric secretion; 36 hours before pilorus tieing): 5,0 ml/4 hours; change in vivo at 20 mg/kg (gastric secretion; [1]): -59%; change in vivo at 20 mg/kg (gastric secretion; [2]): -24%; change in vivo at 20 mg/kg (gastric secretion; [3]): -33%; change in vivo at 20 mg/kg (gastric secretion; [4]): -20%; change in vivo at 20 mg/kg (gastric secretion; [5]): -29%; change in vivo at 20 mg/kg (gastric secretion; [6]): -14%; change in vivo at 20 mg/kg (gastric secretion; [7]): -6%; change in vivo at 20 mg/kg (gastric secretion; [8]): -11%; ED50 (gastric secretion): 2.2 mg/kg; ability to reduce the gastric acid secretion (in words) (gastric secretion): interesting ability; LD50 at 360 h (in vivo): 550 mg/kg; LD50 (in vivo): 900 mg/kg |
| CN(C)Cc1ccc(CSCCNc2nc(C=Cc3ccccc3)cs2)o1 [Example No. 4, 2-(2-(((5-(dimethylamino)methyl-2-furanyl)methyl)thio)ethyl)amino-4-styryl-thiazole] | 93 | 100 | 100 | 100 | 100 | 38 | 70 | 100 | 60 | 100 | 20 | 45 | 90 | 35 | 70 | interesting ability | 0,09 mEq/4 hours | 3,9 ml/4 hours | 0,08 mEq/4 hours | 4,0 ml/4 hours | Total acidity gastric juice secretion (gastric secretion; 24 hours before pilorus tieing): 0,14 mEq/4 hours; Volume gastric juice secretion (gastric secretion; 24 hours before pilorus tieing): 4,9 ml/4 hours; Total acidity gastric juice secretion (gastric secretion; 36 hours before pilorus tieing): 0,14 mEq/4 hours; Volume gastric juice secretion (gastric secretion; 36 hours before pilorus tieing): 5,3 ml/4 hours; change in vivo at 20 mg/kg (gastric secretion; [1]): -47%; change in vivo at 20 mg/kg (gastric secretion; [2]): -26%; change in vivo at 20 mg/kg (gastric secretion; [3]): -47%; change in vivo at 20 mg/kg (gastric secretion; [4]): -21%; change in vivo at 20 mg/kg (gastric secretion; [5]): -18%; change in vivo at 20 mg/kg (gastric secretion; [6]): -13%; change in vivo at 20 mg/kg (gastric secretion; [7]): -12%; change in vivo at 20 mg/kg (gastric secretion; [8]): -5%; ED50 (gastric secretion): 3.2 mg/kg; ability to reduce the gastric acid secretion (in words) (gastric secretion): interesting ability; LD50 at 360 h (in vivo): 2900 mg/kg; LD50 (in vivo): 3000 mg/kg |
| CN(C)Cc1ccc(CSCCNc2nc(-c3ccc(-c4ccccc4)cc3)cs2)o1 [Example No. 5, 2-(2-(((5-(dimethylamino)methyl-2-furanyl)methyl)thio)ethyl)amino-4-(4-biphenyl)-thiazole] | 100 | 100 | 100 | 100 | 100 | 45 | 70 | 100 | 60 | 90 | 25 | 65 | 95 | 40 | 85 | interesting ability | 0,08 mEq/4 hours | 3,7 ml/4 hours | 0,08 mEq/4 hours | 3,8 ml/4 hours | Total acidity gastric juice secretion (gastric secretion; 24 hours before pilorus tieing): 0,13 mEq/4 hours; Volume gastric juice secretion (gastric secretion; 24 hours before pilorus tieing): 4,9 ml/4 hours; Total acidity gastric juice secretion (gastric secretion; 36 hours before pilorus tieing): 0,13 mEq/4 hours; Volume gastric juice secretion (gastric secretion; 36 hours before pilorus tieing): 4,4 ml/4 hours; change in vivo at 20 mg/kg (gastric secretion; [1]): -53%; change in vivo at 20 mg/kg (gastric secretion; [2]): -30%; change in vivo at 20 mg/kg (gastric secretion; [3]): -47%; change in vivo at 20 mg/kg (gastric secretion; [4]): -25%; change in vivo at 20 mg/kg (gastric secretion; [5]): -23%; change in vivo at 20 mg/kg (gastric secretion; [6]): -13%; change in vivo at 20 mg/kg (gastric secretion; [7]): -19%; change in vivo at 20 mg/kg (gastric secretion; [8]): -21%; ED50 (gastric secretion): 1.6 mg/kg; ability to reduce the gastric acid secretion (in words) (gastric secretion): interesting ability; LD50 at 360 h (in vivo): 2300 mg/kg; LD50 (in vivo): 3300 mg/kg |

Source: US4652575A, “2-(ethylene-thio methyl furanyl)amino thiazole derivatives having acid secretion inhibiting activity” (Medosan Industrie Biochimiche Riunite S.p.A., priority 1984, dated 1987)
